According to ChEMBL document CHEMBL4177615 (Bioorg Med Chem, 2017):

Assays:
Plasmodium falciparum [1] = assay: Antimalarial activity against Plasmodium falciparum 3D7 infected in ARh+ human erythrocytes at 10 uM after 42 to 48 hrs by Picogreen staining-based 96 well microplate assay; format: functional; settings: read-out: GI
Plasmodium falciparum [2] = assay: Antimalarial activity against Plasmodium falciparum 3D7 infected in ARh+ human erythrocytes at 1 uM after 42 to 48 hrs by Picogreen staining-based 96 well microplate assay; format: functional; settings: read-out: GI
Plasmodium falciparum [3] = assay: Antimalarial activity against Plasmodium falciparum 3D7 infected in ARh+ human erythrocytes at 0.1 uM after 42 to 48 hrs by Picogreen staining-based 96 well microplate assay; format: functional; settings: read-out: GI
Plasmodium falciparum [4] = assay: Antimalarial activity against Plasmodium falciparum 3D7 infected in ARh+ human erythrocytes at 0.01 uM after 42 to 48 hrs by Picogreen staining-based 96 well microplate assay; format: functional; settings: read-out: GI
Plasmodium falciparum [5] = assay: Antimalarial activity against Plasmodium falciparum 3D7 infected in ARh+ human erythrocytes after 42 to 48 hrs by Picogreen staining-based 96 well microplate assay; format: functional, organism-based
[6] = target: Voltage-gated inwardly rectifying potassium channel KCNH2 (Homo sapiens, UniProt Q12809); assay: Inhibition of human ERG expressed in Xenopus laevis oocytes by two-electrode voltage clamp assay; format: cell-based
Sequence of Voltage-gated inwardly rectifying potassium channel KCNH2 (Q12809 whole entry): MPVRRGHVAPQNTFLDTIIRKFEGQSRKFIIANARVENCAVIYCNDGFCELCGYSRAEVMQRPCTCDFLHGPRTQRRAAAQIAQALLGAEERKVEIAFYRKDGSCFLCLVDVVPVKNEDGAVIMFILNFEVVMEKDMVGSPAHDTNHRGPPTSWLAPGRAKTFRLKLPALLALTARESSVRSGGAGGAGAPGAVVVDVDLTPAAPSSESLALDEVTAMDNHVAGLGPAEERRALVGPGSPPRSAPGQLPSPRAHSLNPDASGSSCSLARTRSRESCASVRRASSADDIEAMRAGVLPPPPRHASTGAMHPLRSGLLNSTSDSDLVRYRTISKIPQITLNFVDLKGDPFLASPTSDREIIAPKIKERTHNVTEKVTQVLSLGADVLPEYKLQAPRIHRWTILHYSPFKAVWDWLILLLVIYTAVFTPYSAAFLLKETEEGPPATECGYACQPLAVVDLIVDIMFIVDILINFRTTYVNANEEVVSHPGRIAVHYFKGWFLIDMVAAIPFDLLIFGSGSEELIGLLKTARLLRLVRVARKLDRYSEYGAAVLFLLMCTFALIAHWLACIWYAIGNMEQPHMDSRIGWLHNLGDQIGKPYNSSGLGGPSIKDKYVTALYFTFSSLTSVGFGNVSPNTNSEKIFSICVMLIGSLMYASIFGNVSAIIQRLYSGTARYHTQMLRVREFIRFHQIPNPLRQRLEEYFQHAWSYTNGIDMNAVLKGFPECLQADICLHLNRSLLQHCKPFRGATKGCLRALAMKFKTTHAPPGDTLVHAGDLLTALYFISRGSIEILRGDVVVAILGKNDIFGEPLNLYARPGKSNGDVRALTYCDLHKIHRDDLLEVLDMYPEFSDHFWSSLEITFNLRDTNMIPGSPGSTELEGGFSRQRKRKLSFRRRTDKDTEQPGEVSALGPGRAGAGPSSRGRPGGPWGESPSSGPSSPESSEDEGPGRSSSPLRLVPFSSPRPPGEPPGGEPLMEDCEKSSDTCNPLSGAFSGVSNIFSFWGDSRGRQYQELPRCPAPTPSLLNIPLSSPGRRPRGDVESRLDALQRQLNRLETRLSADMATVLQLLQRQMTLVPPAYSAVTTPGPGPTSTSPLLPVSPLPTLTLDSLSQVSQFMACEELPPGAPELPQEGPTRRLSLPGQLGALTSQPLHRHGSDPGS

hERG (KCNH2) = assay: Selectivity index, ratio of IC50 for inhibition of human ERG expressed in Xenopus laevis oocytes to IC50 for Plasmodium falciparum 3D7; format: toxicity, cell-based; settings: read-out: Ratio IC50
Plasmodium falciparum [7] = assay: Antiplasmodial activity against Plasmodium falciparum K1 at 0.002 to 100 ug/ml by serial drug dilution assay; format: functional, organism-based

Row | IC50 (Plasmodium falciparum [5]) | SMILES | inhibition of growth at 10 µM (Plasmodium falciparum [1]) | inhibition of growth at 1 µM (Plasmodium falciparum [2]) | inhibition of growth at 0.1 µM (Plasmodium falciparum [3]) | inhibition of growth at 0.01 µM (Plasmodium falciparum [4]) | IC50 [6] | selectivity ratio (hERG (KCNH2)) | IC50 (Plasmodium falciparum [7])
1 | 50 to 113 nM | CCCCCCCCCCn1c(NC2CCN(CCc3ccc(OC)cc3)CC2)nc2ccccc21 | 100% | 100% | 77% | 0% | 2070 nM | 18.4 | –
2 | 39.4 to 44 nM | COc1ccc(CCN2CCC(Nc3nc4ccccc4n3CC3CCCCC3)CC2)cc1 | 100% | 100% | 80% | 1% | 3.27 nM | 0.1 | –
3 | 28 to 92 nM | COc1ccc(CCN2CCC(Nc3nc4ccccc4n3CCC(C)C)CC2)cc1 | 97% | 100% | 54% | 0% | 212 nM | 7.6 | –
4 | – | CN(C)CCC=C1c2ccccc2CCc2ccccc21 [AMITRIPTYLINE] | – | – | – | – | – | – | 500 nM
5 | – | OCCN1CCN(CCCN2c3ccccc3Sc3ccc(C(F)(F)F)cc32)CC1 [FLUPHENAZINE] | – | – | – | – | – | – | 500 nM
6 | – | CNCCC=C1c2ccccc2CCc2ccccc21 [NORTRIPTYLINE] | – | – | – | – | – | – | 500 nM
7 | – | CN(C)CCCN1c2ccccc2Sc2ccccc21 [PROMAZINE] | – | – | – | – | – | – | 500 nM
